# Reference: patent US11192867B2, “Microbiocidal oxadiazole derivatives” (SYNGENTA PARTICIPATIONS AG, priority 2016, dated 2021)
# Assays:
# [1] = test system: Glomerella lagenarium (Colletotrichum lagenarium); test: Fungicidal activity against Glomerella lagenarium (Colletotrichum lagenarium) liquid culture / cucumber / preventative (anthracnose); assay type: cell-based; conditions: Colletotrichum orbiculare, 72 h; 20 ppm in the applied formulation; liquid culture (PDB), growth inhibition measured photometrically 3 to 4 days after application; vs untreated control; read-out: disease control
# How it was run: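 In liquid culture, cryo-stored conidia in potato dextrose broth were exposed to compound delivered from DMSO solution. Growth inhibition was measured photometrically after 3 to 4 days at 24° C.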
# [2] = test system: Puccinia recondita f. sp. Tritici; test: Fungicidal activity against Puccinia recondita f. sp. Tritici / wheat / leaf disc curative (brown rust); assay type: in vivo; conditions: foliar, 24 h, 200 ppm in the applied formulation, wheat leaf segments cv. Kanzler, applied 1 day after inoculation, vs untreated control, read-out: disease control
# How it was run: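 Spray application came one day after spore inoculation of Kanzler wheat leaf segments kept on agar. Conditions: 19° C, 75% relative humidity, dark before treatment and 12 h light/12 h dark after. Efficacy = % disease control compared with untreated, 6–8 days post-application.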
# [3] = test system: Puccinia recondita f. sp. Tritici; test: Fungicidal activity against Puccinia recondita f. sp. Tritici / wheat / leaf disc preventative (brown rust); assay type: in vivo; conditions: foliar, 200 ppm in the applied formulation, wheat leaf segments cv. Kanzler, inoculated 1 day after application, vs untreated control, read-out: disease control
# How it was run: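 Preventative leaf-segment test, cv. Kanzler on agar: spray compound, inoculate with spore suspension 1 d post-application, hold at 19° C./75% rh, 12 h/12 h light cycle. Read-out = % disease control vs untreated check at 7–9 d; 200 ppm in applied formulation.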
# Phakopsora pachyrhizi = test: Fungicidal activity against Phakopsora pachyrhizi / soybean / leaf disc preventative (Asian soybean rust); assay type: in vivo; conditions: foliar, 200 ppm in the applied formulation, soybean leaf disks, vs untreated control, read-out: disease control
# How it was run: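 Soybean leaf discs on water agar sprayed with compound diluted in water, then inoculated with spores on the lower surface one day later. Kept 24-36 h dark, 20 °C, 75% rh, then 12 h light/12 h dark. Percent disease control versus untreated scored 12-14 days after application.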
SMILES,melting point [°C],inhibition of growth at 20 ppm [1] [%],pest or weed control at 200 ppm [2] [%],pest or weed control at 200 ppm [3] [%],pest or weed control at 200 ppm (Phakopsora pachyrhizi) [%]
"CON=CC(C)NC(=O)c1ccc(-c2noc(C(F)(F)F)n2)cc1 (centres unmarked) [Compound 1.3, N-(2-methoxyimino-1-methyl-ethyl)-4-[5-(trifluoromethyl)-1,2,4-oxadiazol-3-yl]benzamide]",164 to 165,≥ 80,≥ 80,≥ 80,≥ 80
"CON=CCCNC(=O)c1ccc(-c2noc(C(F)(F)F)n2)cc1 [Compound 1.152, N-(3-methoxyimino-propyl)-4-[5-(trifluoromethyl)-1,2,4-oxadiazol-3-yl]benzamide]",136 to 140,≥ 80,≥ 80,≥ 80,≥ 80
"CON=C(C)CNC(=O)c1ccc(-c2noc(C(F)(F)F)n2)cc1F [Compound 1.157, 2-fluoro-N-(2-methoxyimino-propyl)-4-[5-(trifluoromethyl)-1,2,4-oxadiazol-3-yl]benzamide]",122 to 124,≥ 80,≥ 80,≥ 80,≥ 80
"CO/N=C(\C)C(NC(=O)c1ccc(-c2noc(C(F)(F)F)n2)cc1)OC (centres unmarked) [Compound 1.7, N-[(2E)-1-methoxy-2-methoxyimino-propyl]-4-[5-(trifluoromethyl)-1,2,4-oxadiazol-3-yl]benzamide]",100.7 to 106.9,≥ 80,≥ 80,≥ 80,≥ 80
"CC(C)ON=CCCNC(=O)c1ccc(-c2noc(C(F)(F)F)n2)cc1 [Compound 1.168, N-(3-isopropoxyimino-propyl)-4-[5-(trifluoromethyl)-1,2,4-oxadiazol-3-yl]benzamide]",122 to 124,≥ 80,≥ 80,≥ 80,≥ 80
"CCON=C(C)CNC(=O)c1ccc(-c2noc(C(F)(F)F)n2)cc1F [Compound 1.158, N-(2-ethoxyiminopropyl)-2-fluoro-4-[5-(trifluoromethyl)-1,2,4-oxadiazol-3-yl]benzamide]",120 to 122,≥ 80,≥ 80,≥ 80,≥ 80
"CCON=CCCNC(=O)c1ccc(-c2noc(C(F)(F)F)n2)cc1F [Compound 1.162, N-(3-ethoxyiminopropyl)-2-fluoro-4-[5-(trifluoromethyl)-1,2,4-oxadiazol-3-yl]benzamide]",97 to 99,≥ 80,≥ 80,≥ 80,≥ 80
"CCO/N=C\C(C)NC(=O)c1ccc(-c2noc(C(F)(F)F)n2)cc1 (centres unmarked) [Compound 1.9, N-[(2Z)-2-ethoxyimino-1-methyl-ethyl]-4-[5-(trifluoromethyl)-1,2,4-oxadiazol-3-yl]benzamide]",173 to 174,≥ 80,≥ 80,≥ 80,≥ 80
"CON=CCNC(=O)c1ccc(-c2noc(C(F)(F)F)n2)c(F)c1 [Compound 1.166, 3-fluoro-N-(2-methoxyimino-ethyl)-4-[5-(trifluoromethyl)-1,2,4-oxadiazol-3-yl]benzamide]",120 to 122,≥ 80,≥ 80,≥ 80,≥ 80
"CCON=CCCNC(=O)c1ccc(-c2noc(C(F)(F)F)n2)c(F)c1 [Compound 1.161, N-(3-ethoxyiminopropyl)-3-fluoro-4-[5-(trifluoromethyl)-1,2,4-oxadiazol-3-yl]benzamide]",108 to 110,≥ 80,≥ 80,≥ 80,≥ 80
"CO/N=C(\C)CNC(=O)c1ccc(-c2noc(C(F)(F)F)n2)cc1 [Compound 1.13, N-[(2E)-2-methoxyimino-propyl]-4-[5-(trifluoromethyl)-1,2,4-oxadiazol-3-yl]benzamide]",145 to 146,≥ 80,≥ 80,≥ 80,≥ 80
"C#CCO/N=C\NC(=O)c1ccc(-c2noc(C(F)(F)F)n2)cc1 [Compound 1.6, N-[(Z)-prop-2-ynoxyimino-methyl]-4-[5-(trifluoromethyl)-1,2,4-oxadiazol-3-yl]benzamide]",114 to 119,≥ 80,≥ 80,≥ 80,≥ 80
"CCO/N=C/C(C)NC(=O)c1ccc(-c2noc(C(F)(F)F)n2)cc1 (centres unmarked) [Compound 1.8, N-[(2E)-2-ethoxyimino-1-methyl-ethyl]-4-[5-(trifluoromethyl)-1,2,4-oxadiazol-3-yl]benzamide]",142 to 143,≥ 80,≥ 80,≥ 80,≥ 80
"O=C(NCCC=NO)c1ccc(-c2noc(C(F)(F)F)n2)cc1 [Compound 1.154, N-(3-hydroxyimino-propyl)-4-[5-(trifluoromethyl)-1,2,4-oxadiazol-3-yl]benzamide]",180 to 183,≥ 80,≥ 80,≥ 80,≥ 80
"CON=CCCNC(=O)c1ccc(-c2noc(C(F)(F)F)n2)cc1F [Compound 1.163, 2-fluoro-N-(3-methoxyimino-propyl)-4-[5-(trifluoromethyl)-1,2,4-oxadiazol-3-yl]benzamide]",98 to 100,≥ 80,≥ 80,≥ 80,≥ 80

# The next lines start with results.
melting point [°C],SMILES,inhibition of growth at 20 ppm [1] [%],pest or weed control at 200 ppm [2] [%],pest or weed control at 200 ppm [3] [%],pest or weed control at 200 ppm (Phakopsora pachyrhizi) [%]
133 to 134,"CC(CNC(=O)c1ccc(-c2noc(C(F)(F)F)n2)cc1)=NOCCF [Compound 1.151, N-[2-(2-fluoroethoxyimino)propyl]-4-[5-(trifluoromethyl)-1,2,4-oxadiazol-3-yl]benzamide]",≥ 80,≥ 80,≥ 80,≥ 80
89 to 91,"C#CCO/N=C/CCNC(=O)c1ccc(-c2noc(C(F)(F)F)n2)cc1 [Compound 1.167, N-[(3E)-3-prop-2-ynoxyiminopropyl]-4-[5-(trifluoromethyl)-1,2,4-oxadiazol-3-yl]benzamide]",≥ 80,≥ 80,≥ 80,≥ 80
138 to 139,"CC(/C=N/OCCF)NC(=O)c1ccc(-c2noc(C(F)(F)F)n2)cc1 (centres unmarked) [Compound 1.149, N-[(2E)-2-(2-fluoroethoxy-imino)-1-methyl-ethyl]-4-[5-(trifluoromethyl)-1,2,4-oxadiazol-3-yl]benzamide]",≥ 80,≥ 80,≥ 80,≥ 80
156 to 158,"CCON=CCNC(=O)c1ccc(-c2noc(C(F)(F)F)n2)cc1 [Compound 1.11, N-(2-ethoxyiminoethyl)-4-[5-(trifluoromethyl)-1,2,4-oxadiazol-3-yl]benzamide]",≥ 80,≥ 80,≥ 80,≥ 80
172 to 173,"CC(/C=N\OCCF)NC(=O)c1ccc(-c2noc(C(F)(F)F)n2)cc1 (centres unmarked) [Compound 1.150, N-[(2Z)-2-(2-fluoroethoxyimino)-1-methyl-ethyl]-4-[5-(trifluoromethyl)-1,2,4-oxadiazol-3-yl]benzamide]",≥ 80,≥ 80,≥ 80,≥ 80
145 to 146,"O=C(NCC=NOCCF)c1ccc(-c2noc(C(F)(F)F)n2)cc1 [Compound 1.148, N-[2-(2-fluoroethoxyimino)ethyl]-4-[5-(trifluoromethyl)-1,2,4-oxadiazol-3-yl]benzamide]",≥ 80,≥ 80,≥ 80,≥ 80
155 to 157,"CON=CCNC(=O)c1ccc(-c2noc(C(F)(F)F)n2)cc1 [Compound 1.10, N-(2-methoxyimino-ethyl)-4-[5-(trifluoromethyl)-1,2,4-oxadiazol-3-yl]benzamide]",≥ 80,≥ 80,≥ 80,≥ 80
